Assay results from US20090298804A1, “Novel Compounds and Methods for Their Production” (priority 2006, published 2009).

Experiments:
MEXF 394NL = experiment: Monolayer proliferation assay (modified propidium iodide assay), MEXF 394NL; assay type: cell-based, human; conditions: MEXF 394NL (melanoma), 4 days continuous exposure
Protocol: (§1) In vitro evaluation of compounds for anticancer activity in a panel of human tumour cell lines in a monolayer proliferation assay was carried out at the Oncotest Testing Facility, Institute for Experimental Oncology, Oncotest GmbH, Freiburg.
(§2) The Oncotest cell lines are established from human tumor xenografts as described by Roth et al., (1999). The origin of the donor xenografts was described by Fiebig et al., (1999). Other cell lines were either obtained from the NCI (DU145, MCF-7) or purchased from DSMZ, Braunschweig, Germany.
(§3) All cell lines, unless otherwise specified, were grown at 37° C. in a humidified atmosphere (95% air, 5% CO2) in a ‘ready-mix’ medium containing RPMI 1640 medium, 10% fetal calf serum, and 0.1 mg/mL gentamicin (PAA, Cölbe, Germany).
(§4) A modified propidium iodide assay was used to assess the effects of the test compound(s) on the growth of human tumour cell lines (Dengler et al., (1995)).
(§5) Briefly, cells were harvested from exponential phase cultures by trypsinization, counted and plated in 96 well flat-bottomed microtitre plates at a cell density dependent on the cell line (5-10.000 viable cells/well). […] After thawing the plates, fluorescence was measured using the Cytofluor 4000 microplate reader (excitation 530 nm, emission 620 nm), giving a direct relationship to the total number of viable cells.
(§6) Growth inhibition was expressed as treated/control×100 (% T/C). […]

DU145 = experiment: Monolayer proliferation assay (modified propidium iodide assay), DU145; assay type: cell-based, human; conditions: DU145 (prostate, PTEN positive), 4 days continuous exposure
Protocol: as §1, §2, §3, §4, §5, §6

CNXF 498NL = experiment: Monolayer proliferation assay (modified propidium iodide assay), CNXF 498NL; assay type: cell-based, human; conditions: CNXF 498NL (CNS), 4 days continuous exposure
Protocol: as §1, §2, §3, §4, §5, §6

LXF 1121L = experiment: Monolayer proliferation assay (modified propidium iodide assay), LXF 1121L; assay type: cell-based, human; conditions: LXF 1121L (lung, large cell ca), 4 days continuous exposure
Protocol: as §1, §2, §3, §4, §5, §6

MCF-7 = experiment: Monolayer proliferation assay (modified propidium iodide assay), MCF-7; assay type: cell-based, human; conditions: MCF-7 (breast), 4 days continuous exposure
Protocol: as §1, §2, §3, §4, §5, §6

CXF HT29 = experiment: Monolayer proliferation assay (modified propidium iodide assay), CXF HT29; assay type: cell-based, human; conditions: CXF HT29 (colon), 4 days continuous exposure
Protocol: as §1, §2, §3, §4, §5, §6

Hsp90 = Hsp90 (Homo sapiens, UniProt P07900); conditions: cited from earlier work
Reverse transcriptase = conditions: cited from earlier work
[1] = target: terminal deoxynucleotidyl transferase (Homo sapiens, UniProt P04053); conditions: cited from earlier work
Chain of terminal deoxynucleotidyl transferase (P04053 whole entry, species assumed): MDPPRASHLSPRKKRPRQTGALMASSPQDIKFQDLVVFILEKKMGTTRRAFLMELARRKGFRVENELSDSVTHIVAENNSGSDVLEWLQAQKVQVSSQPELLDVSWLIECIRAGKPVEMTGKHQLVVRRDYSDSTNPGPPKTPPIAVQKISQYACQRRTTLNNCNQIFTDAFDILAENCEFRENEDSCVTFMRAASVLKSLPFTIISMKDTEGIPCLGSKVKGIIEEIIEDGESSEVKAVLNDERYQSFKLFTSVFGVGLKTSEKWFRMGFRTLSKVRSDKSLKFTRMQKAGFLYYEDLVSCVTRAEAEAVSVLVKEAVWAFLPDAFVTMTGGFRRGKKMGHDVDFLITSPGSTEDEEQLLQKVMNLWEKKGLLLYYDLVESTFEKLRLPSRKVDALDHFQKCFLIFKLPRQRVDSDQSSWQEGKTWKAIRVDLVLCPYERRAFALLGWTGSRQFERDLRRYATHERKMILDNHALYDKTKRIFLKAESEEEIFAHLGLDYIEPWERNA

15-desmethoxy macbecin [compound 15]
Test/Control (%) at drug concentration (MEXF 394NL; 1 μg/mL): 24.3%
Test/Control (%) at drug concentration (MEXF 394NL; 10 μg/mL): 4.7%
Test/Control (%) at drug concentration (DU145; 1 μg/mL): 30.3%
Test/Control (%) at drug concentration (DU145; 10 μg/mL): 6.3%
Test/Control (%) at drug concentration (CNXF 498NL; 1 μg/mL): 44.3%
Test/Control (%) at drug concentration (CNXF 498NL; 10 μg/mL): 12.7%
Test/Control (%) at drug concentration (LXF 1121L; 1 μg/mL): 47.7%
Test/Control (%) at drug concentration (LXF 1121L; 10 μg/mL): 14.7%
Test/Control (%) at drug concentration (MCF-7; 1 μg/mL): 53.3%
Test/Control (%) at drug concentration (MCF-7; 10 μg/mL): 13%
Test/Control (%) at drug concentration (CXF HT29; 1 μg/mL): 54.7%
Test/Control (%) at drug concentration (CXF HT29; 10 μg/mL): 13%

CO[C@H]1C[C@H](C)Cc2cc(O)cc(c2)NC(=O)/C=C/CC[C@H](OC)[C@@H](OC(N)=O)/C(C)=C/[C@H](C)[C@H]1O [KOSN1559]
binding affinity to Hsp90, greater than 17-AAG (Hsp90; relative to 17-AAG): 8 fold
binding affinity to Hsp90, greater than geldanamycin (Hsp90; relative to geldanamycin): 4 fold

CO[C@H]1[C@@H](OC)C[C@H](C)[C@@H](OC)C2=CC(=O)C=C(NC(=O)/C(C)=C/C=C\[C@H](C)[C@@H](OC(N)=O)/C(C)=C/[C@@H]1C)C2=O [Macbecin, macbecin]
Reverse transcriptase activity inhibition (Reverse transcriptase): not inhibited
terminal deoxynucleotidyl transferase activity inhibition [1]: not inhibited
